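Following 48 hours of exposure in 96-well plates, responses at five concentrations were used to interpolate endpoints linearly. GI50 is the concentration that inhibits growth by half.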 Calls of active or inactive are those of the source. Rule as the data show it: active = GI50 up to about 1.1 µM and inactive = higher.
What was measured:
Test in all cases: NCI tumour cell line growth inhibition, 48 h
SF-539 = tested on: SF-539
A498 = tested on: A498
MCF7 = tested on: MCF7
SF-268 = tested on: SF-268
Malme-3M = tested on: Malme-3M
MDA-MB-435 = tested on: MDA-MB-435
COLO 205 = tested on: COLO 205
UACC-257 = tested on: UACC-257
MDA-MB-231 = tested on: MDA-MB-231
CCRF-CEM = tested on: CCRF-CEM
SNB-75 = tested on: SNB-75
EKVX = tested on: EKVX
SF-295 = tested on: SF-295
MOLT-4 = tested on: MOLT-4
U-251 = tested on: U-251
PC-3 = tested on: PC-3
SK-MEL-2 = tested on: SK-MEL-2
NCI-H522 = tested on: NCI-H522
SK-MEL-5 = tested on: SK-MEL-5
SK-MEL-28 = tested on: SK-MEL-28

Row | SMILES | GI50 (SF-539) | GI50 (A498) | GI50 (MCF7) | GI50 (SF-268) | GI50 (Malme-3M) | GI50 (MDA-MB-435) | GI50 (COLO 205) | GI50 (UACC-257) | GI50 (MDA-MB-231) | GI50 (CCRF-CEM) | GI50 (SNB-75) | GI50 (EKVX) | GI50 (SF-295) | GI50 (MOLT-4) | GI50 (U-251) | GI50 (PC-3) | GI50 (SK-MEL-2) | GI50 (NCI-H522) | GI50 (SK-MEL-5) | GI50 (SK-MEL-28)
1 | COC1=C(N=[N+]=[N-])C(=O)c2ncccc2C1=O | 16 µM (inactive) | 17.1 µM (inactive) | 1.82 µM (inactive) | 14.5 µM (inactive) | 2.33 µM (inactive) | 2.12 µM (inactive) | 3.04 µM (inactive) | 4.34 µM (inactive) | 12.4 µM (inactive) | 0.401 µM (active) | 13.1 µM (inactive) | 8.61 µM (inactive) | 15.6 µM (inactive) | 0.887 µM (active) | 14.6 µM (inactive) | 15.5 µM (inactive) | 18.6 µM (inactive) | 1.9 µM (inactive) | 10.1 µM (inactive) | 14.3 µM (inactive)
2 | COC(=O)c1cccc(COc2ccc([N+](=O)[O-])cc2Cl)c1 | > 100 µM (inactive) | 36.5 µM (inactive) | > 100 µM (inactive) | > 100 µM (inactive) | > 100 µM (inactive) | > 100 µM (inactive) | > 100 µM (inactive) | > 100 µM (inactive) | 82.8 µM (inactive) | 63.4 µM (inactive) | > 100 µM (inactive) | 37.4 µM (inactive) | > 100 µM (inactive) | > 100 µM (inactive) | 83.2 µM (inactive) | > 100 µM (inactive) | > 100 µM (inactive) | 63.7 µM (inactive) | 51.1 µM (inactive) | > 100 µM (inactive)
3 | N#C/C(=C\c1cn(Cc2ccccc2)c2ccccc12)c1nn(-c2ccccc2)c(N)c1C#N | 3.11 µM (inactive) | 16.7 µM (inactive) | 28.2 µM (inactive) | 24.9 µM (inactive) | 21.4 µM (inactive) | 20.6 µM (inactive) | 20.1 µM (inactive) | 20.1 µM (inactive) | 4.13 µM (inactive) | 19.1 µM (inactive) | 4.07 µM (inactive) | 8.07 µM (inactive) | 11.1 µM (inactive) | 26.1 µM (inactive) | 13.6 µM (inactive) | 8.22 µM (inactive) | 4.65 µM (inactive) | 13.2 µM (inactive) | 11 µM (inactive) | 27.7 µM (inactive)
4 | CC(C)CC1C(=O)NCCC(NC(=O)C(N)Cc2ccc(O)cc2)C(=O)NC(Cc2ccccc2)C(=O)NC(Cc2ccccc2)NC1=O (stereo not given) | > 100 µM (inactive) | > 100 µM (inactive) | > 100 µM (inactive) | > 100 µM (inactive) | > 100 µM (inactive) | > 100 µM (inactive) | > 100 µM (inactive) | > 100 µM (inactive) | > 100 µM (inactive) | > 100 µM (inactive) | > 100 µM (inactive) | > 100 µM (inactive) | > 100 µM (inactive) | > 100 µM (inactive) | > 100 µM (inactive) | > 100 µM (inactive) | > 100 µM (inactive) | > 100 µM (inactive) | 17.9 µM (inactive) | > 100 µM (inactive)

Reference: ChEMBL document CHEMBL1201862, “PubChem BioAssay data set” (2004)
